For data set [1] the following is noted: as mentioned in U.S. Pat. No. 6,518,284 B2 and EP1002794; cited from earlier work.
Data set [2] can be described thus: hygroscopicity. It counts as physicochemical.
Data set [3] relates to dorsal raphe serotonergic neurones. Particulars: in vivo; cited from earlier work.
For data set [4], the system named is 5-HTP-induced syndrome. Particulars: mice, orally administered, acute; cited from earlier work.
Data set [5] deals with apomorphine-induced hypothermia. The following applies: mice, orally administered, acute; cited from earlier work.
Data set [6] has as its system immobility in the tail suspension test. Particulars: mice, orally administered, acute; cited from earlier work.
Data set [7] has as its system immobility in the forced swimming test. Particulars: mice, 30 mg/kg, p.o.; cited from earlier work.
Data set [8] shares this test system. Particulars: rats, 30 mg/kg, p.o.; cited from earlier work.
Data set [9] concerns hyperactivity induced by olfactory bulbectomy. Particulars: rats, chronic administration 14 days, 30 mg kg(−1) day(−1), p. o.; cited from earlier work.
Data set [10] relates to social interaction time. Particulars: rats, 14 days, 30 mg kg(−1) day(−1), p. o.; cited from earlier work.
Data set [11] can be described thus: studies of stability under forced conditions. It counts as physicochemical. On the procedure: Additionally, the compound of formula I has shown excellent stability properties. The compound of formula I has remained stable for at least 6 months in studies of stability under forced conditions at 50 and 60° C., as well as at 40° C. and 75% humidity. This represents more than 2 years of stability under normal conditions.

Each structure is given as a SMILES string. Counter-ions that a name gives are not always drawn. Like-named read-outs stand apart in the source and are kept apart here.

Results on 6 compounds are retold here after patent US20070265306A1, “4-[(3-fluorophenoxy)phenylmethyl]piperidine methanesulfonate: uses, process of synthesis and pharmaceutical compositions” (priority 2006, published 2007).

By melting point is commonly meant the temperature of the solid-liquid transition.

`Fc1cccc(O[C@H](c2ccccc2)C2CCNCC2)c1` (as salt: fumaric acid salt) [(S)-4-[(3-fluorophenoxy)phenylmethyl]piperidine]: the melting point lay within 105 to 108 °C.

As to `Fc1cccc(OC(c2ccccc2)C2CCNCC2)c1` (racemic) [4-[(3-fluorophenoxy)phenylmethyl]piperidine], the solubility in water result in data set [1] is recorded as “insoluble in water”.

`Cl.Fc1cccc(O[C@H](c2ccccc2)C2CCNCC2)c1` [(S)-4-[(3-fluorophenoxy)phenylmethyl]piperidine hydrochloric acid salt] showed a melting point of 55 to 60 °C. Besides, in data set [2], the hygroscopicity result was “hygroscopic”.

Consider `Fc1cccc(O[C@H](c2ccccc2)C2CCNCC2)c1.O=S(=O)(O)O` [(S)-4-[(3-fluorophenoxy)phenylmethyl]piperidine sulphuric acid salt], for which the hygroscopicity entry in data set [2] was “hygroscopic”.

For the compound `Fc1cccc(O[C@H](c2ccccc2)C2CCNCC2)c1` [(S)-4-[(3-fluorophenoxy)phenylmethyl]piperidine], the “ED50, decrease of electrical activity of dorsal raphe serotonergic neurones” value in [3] was 0.5303 mg/kg. The “minimal effective dose (MED), potentiation of 5-HTP-induced syndrome” value in data set [4] is 10 mg/kg. Also, in data set [5], the “ED50, antagonism of hypothermia induced by a high dose of apomorphine” value is 2 mg/kg. Further, in [6], the “MED, reduction of immobility in the tail suspension test” value is on record as 10 mg/kg. Besides, the “immobility in the forced swimming test” value in data set [7] and in [8] was “decreases the immobility” throughout. The “hyperactivity induced by olfactory bulbectomy” value in data set [9] is given as “attenuates the hyperactivity”. The social interaction time result in [10] was “significantly increases”.

For `CS(=O)(=O)O.Fc1cccc(OC(c2ccccc2)C2CCNCC2)c1` (stereo not drawn) [compound of formula I, 4-[(3-fluorophenoxy)phenylmethyl]piperidine methanesulfonic acid salt], the “time remained stable under forced conditions” value is on record as “at least 6 months” in [11] (40° C. and 75% humidity); “at least 6 months” in [11] (50° C.); “at least 6 months” in [11] (60° C.). For the same compound, the “stability under normal conditions” value in data set [11] (normal conditions, extrapolated from forced conditions) was “more than 2 years”. In addition, the hygroscopicity entry in data set [2] is on record as “not hygroscopic”.
